Reference: US7714006B1, “Methods of modifying the bioavailability of metaxalone” (King Pharmaceuticals Research & Development, Inc., priority 2001, dated 2010)

Legend:
[1] = Effects of age and gender on PK parameters, 1×800 mg data from study 103 and 2×400 mg data from study 105, fed and fasted; type: in vivo, human; conditions: 1×800 mg (103) + 2×400 mg (105)
Experimental: The report is based primarily on two similarly designed studies in which PK parameters were determined under fed and fasted conditions for the 2×400 mg dose of metaxalone: • Study AN151607-103 (hereafter referred to as the 103 study): a four-period, randomized crossover trial with treatment conditions 2×400 mg with food, 2×400 mg without food, 1×800 mg with food, 1×800 mg without food; and • Study ELN151607-105 (hereafter referred to as the 105 study): a two-period, randomized crossover trial with treatment conditions 2×400 mg with food and 2×400 mg without food.
(§1) These analyses are still based on the combined group of n=103 subjects (59 from study 103, 44 from study 105). However, the fed and fasted PK values from the 1×800 dosage of study 103 are used instead of the data from the 2×400 dosage.
as §1, with “It is possible to somewhat independently assess the consistency of the results from Sections 3.2 and 3.3 by repeating the analyses using the 1×800 fed and fasted results from study 103. These” for “These”
The same regression modeling strategy as was described in Sections 3.2 and 3.3 was also used. […] The parameter estimates, standard errors, and p-values for the gender and age effects are shown below for the fed and fasted conditions in TABLE XIb: […]

[2] = Effects of age and gender on PK parameters, study 101 (1×400 mg with and without food); type: in vivo, human
Experimental: In addition, the robustness of the results are assessed by applying similar analysis approaches to the data from two other studies: • Study AN151607-101 (hereafter referred to as the 101 study): a two-period, randomized crossover trial with treatment conditions 1×400 mg with food and 1×400 mg without food; • Study AN151607-106 (hereafter referred to as the 106 study): a single dose trial with treatment condition 2×400 mg without food.
Study 101 was a two-period randomized crossover trial conducted in 42 healthy volunteers. The mean age was 23.8 years, with a range from 18 to 42 years. The treatment conditions were 1×400 mg with food and 1×400 mg without food. Because the treatments were not the same as in the 103 and 105 studies (1×400 mg in study 101, as opposed to 2×400 mg in studies 103 and 105), and additionally because the blood sample collection schedules were not the same, it is not possible to combine the 101 data with the data from studies 103 and 105. However, it is possible to independently investigate the effects of age on fed and fasted values of the PK parameters in order to determine if the effects are of similar magnitude and direction to those found in the 103 and 105 studies.
First, Pearson and Spearman correlation coefficients between age and each of the three PK parameters were computed. The correlation coefficients and two-sided p-values from the test of the null hypothesis of no association are shown below in TABLE VIa:
Linear regression models using the natural logarithm of each of the three PK parameters as the dependent variable and age as the independent variable were fitted in order to estimate the magnitude of the associations with age.
Study 101 was a two-period randomized crossover trial conducted in 42 healthy volunteers (31 males, 11 females). The mean age was 23.8 years, with a range from 18 to 42 years. The treatment conditions were 1×400 mg with food and 1×400 mg without food. Because the treatments were not the same as in the 103 and 105 studies, and additionally because the blood sample collection schedules were not the same, it is not possible to combine the 101 data with the data from studies 103 and 105. However, it is reasonable to independently investigate the effects of age and gender on the fed and fasted values of the PK parameters in order to determine if the effects are of similar magnitude and direction to those found in the 103 and 105 studies.
The same regression modeling strategy as was described in Sections 3.2 and 3.3 was also applied. The initial regression models with a gender effect and separate age effects for males and females yielded positive estimates of the age effect for males and negative estimates for females. This was consistent across all three PK parameters. However, none of the age effects was statistically significant and, in addition, there was no significant evidence of interaction between age and gender (all p-values exceeded 0.10). […]

Variability of the fasted PK parameters explained by age ([1]; fasted): more than 25%
Pearson correlation, age vs ln(AUC(inf)) ([1]; fasted, n=103): 0.513
Pearson correlation, age vs ln(AUC(last)) ([1]; fasted, n=103): 0.522
Pearson correlation, age vs ln(Cmax) ([1]; fasted, n=103): 0.600
Spearman correlation, age vs ln(AUC(inf)) ([1]; fasted, n=103): 0.514
Spearman correlation, age vs ln(AUC(last)) ([1]; fasted, n=103): 0.522
Spearman correlation, age vs ln(Cmax) ([1]; fasted, n=103): 0.635
Pearson correlation, age vs ln(AUC(inf)) ([1]; fasted, females n=42): 0.582
Pearson correlation, age vs ln(AUC(last)) ([1]; fasted, females n=42): 0.596
Pearson correlation, age vs ln(Cmax) ([1]; fasted, females n=42): 0.607
Spearman correlation, age vs ln(AUC(inf)) ([1]; fasted, females n=42): 0.596
Spearman correlation, age vs ln(AUC(last)) ([1]; fasted, females n=42): 0.601
Spearman correlation, age vs ln(Cmax) ([1]; fasted, females n=42): 0.638
Pearson correlation, age vs ln(AUC(inf)) ([1]; fasted, males n=61): 0.441
Pearson correlation, age vs ln(AUC(last)) ([1]; fasted, males n=61): 0.447
Pearson correlation, age vs ln(Cmax) ([1]; fasted, males n=61): 0.567
Spearman correlation, age vs ln(AUC(inf)) ([1]; fasted, males n=61): 0.499
Spearman correlation, age vs ln(AUC(last)) ([1]; fasted, males n=61): 0.501
Spearman correlation, age vs ln(Cmax) ([1]; fasted, males n=61): 0.599
Variability of the fed PK parameters explained by age ([1]; fed): ≤ 5%
Pearson correlation, age vs ln(AUC(inf)) ([1]; fed, n=103): 0.237
Pearson correlation, age vs ln(AUC(last)) ([1]; fed, n=103): 0.229
Pearson correlation, age vs ln(Cmax) ([1]; fed, n=103): 0.040
Spearman correlation, age vs ln(AUC(inf)) ([1]; fed, n=103): 0.281
Spearman correlation, age vs ln(AUC(last)) ([1]; fed, n=103): 0.276
Spearman correlation, age vs ln(Cmax) ([1]; fed, n=103): 0.086
Pearson correlation, age vs ln(AUC(inf)) ([1]; fed, females n=42): 0.436
Pearson correlation, age vs ln(AUC(last)) ([1]; fed, females n=42): 0.408
Pearson correlation, age vs ln(Cmax) ([1]; fed, females n=42): 0.258
Spearman correlation, age vs ln(AUC(inf)) ([1]; fed, females n=42): 0.432
Spearman correlation, age vs ln(AUC(last)) ([1]; fed, females n=42): 0.410
Spearman correlation, age vs ln(Cmax) ([1]; fed, females n=42): 0.202
Pearson correlation, age vs ln(AUC(inf)) ([1]; fed, males n=61): 0.023
Pearson correlation, age vs ln(AUC(last)) ([1]; fed, males n=61): 0.022
Pearson correlation, age vs ln(Cmax) ([1]; fed, males n=61): −0.170
Spearman correlation, age vs ln(AUC(inf)) ([1]; fed, males n=61): 0.187
Spearman correlation, age vs ln(AUC(last)) ([1]; fed, males n=61): 0.188
Spearman correlation, age vs ln(Cmax) ([1]; fed, males n=61): −0.001
Proportion of variability explained by age, ln(AUC(inf)) ([2]; fasted): 7.7%
Proportion of variability explained by age, ln(Cmax) ([2]; fasted): 13.4%
Pearson correlation, age vs ln(AUC(inf)) ([2]; fasted, females n=11): 0.208
Pearson correlation, age vs ln(AUC(last)) ([2]; fasted, females n=11): 0.284
Pearson correlation, age vs ln(Cmax) ([2]; fasted, females n=11): 0.309
Spearman correlation, age vs ln(AUC(inf)) ([2]; fasted, females n=11): 0.235
Spearman correlation, age vs ln(AUC(last)) ([2]; fasted, females n=11): 0.406
Spearman correlation, age vs ln(Cmax) ([2]; fasted, females n=11): 0.525
Pearson correlation, age vs ln(AUC(inf)) ([2]; fasted, males n=31): 0.287
Pearson correlation, age vs ln(AUC(last)) ([2]; fasted, males n=31): 0.279
Pearson correlation, age vs ln(Cmax) ([2]; fasted, males n=31): 0.384
Spearman correlation, age vs ln(AUC(inf)) ([2]; fasted, males n=31): 0.115
Spearman correlation, age vs ln(AUC(last)) ([2]; fasted, males n=31): 0.127
Spearman correlation, age vs ln(Cmax) ([2]; fasted, males n=31): 0.206
Pearson correlation, age vs ln(AUC(inf)) ([2]; fasted, n=42): 0.277
Pearson correlation, age vs ln(AUC(last)) ([2]; fasted, n=42): 0.289
Pearson correlation, age vs ln(Cmax) ([2]; fasted, n=42): 0.366
Spearman correlation, age vs ln(AUC(inf)) ([2]; fasted, n=42): 0.146
Spearman correlation, age vs ln(AUC(last)) ([2]; fasted, n=42): 0.161
Spearman correlation, age vs ln(Cmax) ([2]; fasted, n=42): 0.235
Proportion of variability explained by age, ln(AUC(inf)) ([2]; fed): 3%
Proportion of variability explained by age, ln(AUC(last)) ([2]; fed): 3%
Proportion of variability explained by age, ln(Cmax) ([2]; fed): 1%
Pearson correlation, age vs ln(AUC(inf)) ([2]; fed, females n=11): −0.165
Pearson correlation, age vs ln(AUC(last)) ([2]; fed, females n=11): −0.188
Pearson correlation, age vs ln(Cmax) ([2]; fed, females n=11): −0.396
Spearman correlation, age vs ln(AUC(inf)) ([2]; fed, females n=11): −0.244
Spearman correlation, age vs ln(AUC(last)) ([2]; fed, females n=11): −0.295
Spearman correlation, age vs ln(Cmax) ([2]; fed, females n=11): −0.645
Pearson correlation, age vs ln(AUC(inf)) ([2]; fed, males n=31): 0.268
Pearson correlation, age vs ln(AUC(last)) ([2]; fed, males n=31): 0.271
Pearson correlation, age vs ln(Cmax) ([2]; fed, males n=31): 0.234
Spearman correlation, age vs ln(AUC(inf)) ([2]; fed, males n=31): 0.088
Spearman correlation, age vs ln(AUC(last)) ([2]; fed, males n=31): 0.094
Spearman correlation, age vs ln(Cmax) ([2]; fed, males n=31): 0.169
Pearson correlation, age vs ln(AUC(inf)) ([2]; fed, n=42): 0.186
Pearson correlation, age vs ln(AUC(last)) ([2]; fed, n=42): 0.179
Pearson correlation, age vs ln(Cmax) ([2]; fed, n=42): 0.102
Spearman correlation, age vs ln(AUC(inf)) ([2]; fed, n=42): 0.029
Spearman correlation, age vs ln(AUC(last)) ([2]; fed, n=42): 0.022
Spearman correlation, age vs ln(Cmax) ([2]; fed, n=42): −0.009
Compound: Cc1cc(C)cc(OCC2CNC(=O)O2)c1 (stereo not shown) [metaxalone, 5-[(3,5-dimethylphenoxy)methyl]-2 oxazolidinone]
